Results taken from patent US8871754B2, “Compounds and compositions for the treatment of parasitic diseases” (IRM LLC, priority 2012, dated 2014).

Tested on: P. falciparum (NF54 or 3D7 strain) in infected human erythrocytes
Test: Assay for P. falciparum proliferation in infected human blood cells (SYBR Green)
Type: cell-based
Details: Plasmodium falciparum, Erythrocyte; NF54 or 3D7 strain, 72 hours, SYBR Green fluorescence; read-out: EC50 (nM), inhibitory efficacy in delaying P. falciparum proliferation in infected human blood cells
Experimental: Assay for P. falciparum Proliferation in Infected Human Blood Cells
Compounds of the invention can be assayed to measure their capacity to inhibit proliferation of P. falciparum parasitemia in infected red blood cells. This parasite proliferation assay measures the increase in parasite DNA content using a DNA intercalating dye, SYBR Green® (INVITROGEN®) which has a high affinity for double stranded DNA.
NF54 or 3D7 P. falciparum strain is grown in complete culturing media until parasitemia reaches 3% to 8% with O+ human erythrocytes. […] 20 μl of screening media is dispensed into 384 well assay plates. 50 nl of compounds of the invention (in DMSO), including antimalarial controls (mefloquine, pyrimethamine and artemisinin), are then transferred into the assay plates, as well as DMSO alone to serve as a negative control for inhibition. Then 30 μl of a suspension of a NF54 or 3D7 P. falciparum infected erythrocytes in screening media is dispensed into the assay plates such that the final hematocrit is 2.5% with a final parasitemia of 0.3%. The plates are placed in a 37° C. incubator for 72 hours in a low oxygen environment containing 93% N2, 4% CO2, and 3% O2 gas mixture. 10 μl of lysis buffer (saponin, triton-X, EDTA) containing a 10× solution of SYBR Green I® in RPMI media is dispensed into the plates. The plates are lidded and kept at room temperature overnight for the lysis of the infected red blood cells. The fluorescence intensity is measured (excitation […], emission 530 nm) using the Envision™ system (Perkin Elmer). The percentage inhibition of 50%, […], is calculated for each compound.

Compound	EC50 [nM]
C[C@@H](N)C(=O)Nc1ccc(-c2cnn3ccc(C(=O)N(C)c4ccc(C#N)cc4)cc23)cc1 [Example 44, (R)-3-(4-(2-aminopropanamido)phenyl)-N-(4-cyanophenyl)-N-methylpyrazolo[1,5-a]pyridine-5-carboxamide]	1
CC(C)[C@H](N)C(=O)Nc1ccc(-c2cnn3ccc(C(=O)N(C)c4ccc(C#N)cc4)cc23)cc1 [Example 45, (S)-3-(4-(2-amino-3-methylbutanamido)phenyl)-N-(4-cyanophenyl)-N-methylpyrazolo[1,5-a]pyridine-5-carboxamide]	16
CN(C(=O)c1ccn2ncc(-c3ccc(NC(=O)[C@@H](N)C4CCCCC4)cc3)c2c1)c1ccc(C#N)cc1 [Example 46, (S)-3-(4-(2-amino-2-cyclohexylacetamido)phenyl)-N-(4-cyanophenyl)-N-methylpyrazolo[1,5-a]pyridine-5-carboxamide]	18
CN(C(=O)Nc1ccc(F)cc1)c1ccn2ncc(-c3ccc(C(F)(F)F)cc3)c2c1 [Example 47, 3-(4-fluorophenyl)-1-methyl-1-(3-(4-(trifluoromethyl)phenyl)pyrazolo[1,5-a]pyridin-5-yl)urea]	> 9000
CN(C(=O)c1ccc(C(C)(F)F)nc1)c1ccn2ncc(-c3ccc(C(F)(F)F)cc3)c2c1 [Example 48, 6-(1,1-difluoroethyl)-N-methyl-N-(3-(4-(trifluoromethyl)phenyl)pyrazolo[1,5-a]pyridin-5-yl)nicotinamide]	288
CN(C(=O)c1ccc(C2CC2)nc1)c1ccn2ncc(-c3ccc(C(F)(F)F)cc3)c2c1 [Example 49, 6-cyclopropyl-N-methyl-N-(3-(4-(trifluoromethyl)phenyl)pyrazolo[1,5-a]pyridin-5-yl)nicotinamide]	2290
CN(C(=O)c1ccc(C2CC2)cc1)c1ccn2ncc(-c3ccc(C(F)(F)F)cc3)c2c1 [Example 50, 4-cyclopropyl-N-methyl-N-(3-(4-(trifluoromethyl)phenyl)pyrazolo[1,5-a]pyridin-5-yl)benzamide]	3850
CN(C(=O)c1ccc(F)cn1)c1ccn2ncc(-c3ccc(C(F)(F)F)cc3)c2c1 [Example 51, 5-fluoro-N-methyl-N-(3-(4-(trifluoromethyl)phenyl)pyrazolo[1,5-a]pyridin-5-yl)picolinamide]	60
CN(C(=O)c1ccc(S(C)(=O)=O)cc1)c1ccn2ncc(-c3ccc(C(F)(F)F)cc3)c2c1 [Example 52, N-methyl-4-(methylsulfonyl)-N-(3-(4-(trifluoromethyl)phenyl)pyrazolo[1,5-a]pyridin-5-yl)benzamide]	13
CN(C(=O)c1ccn2ncc(-c3cnc4[nH]ccc4c3)c2c1)c1ccc(C#N)cn1 [Example 53, N-(5-cyanopyridin-2-yl)-N-methyl-3-(1H-pyrrolo[2,3-b]pyridin-5-yl)pyrazolo[1,5-a]pyridine-5-carboxamide]	1
CN(C(=O)c1ccc(Cl)cc1)c1ccn2ncc(-c3ccc(C(F)(F)F)cc3)c2c1 [Example 55, 4-chloro-N-methyl-N-(3-(4-(trifluoromethyl)phenyl)pyrazolo[1,5-a]pyridin-5-yl)benzamide]	32
CN(C(=O)c1ccc(F)cc1)c1ccn2ncc(-c3ccc(C(N)=O)cc3)c2c1 [Example 56, N-(3-(4-carbamoylphenyl)pyrazolo[1,5-a]pyridin-5-yl)-4-fluoro-N-methylbenzamide]	8
CNc1nnc(-c2ccc(-c3cnn4ccc(N(C)C(=O)c5ccc(F)cc5)cc34)cc2)s1 [Example 57, 4-fluoro-N-methyl-N-(3-(4-(5-(methylamino)-1,3,4-thiadiazol-2-yl)phenyl)pyrazolo[1,5-a]pyridin-5-yl)benzamide]	4
CN(C(=O)c1ccn2ncc(-c3cnc4[nH]ccc4c3)c2c1)c1ccc(S(C)(=O)=O)cn1 [Example 58, N-methyl-N-(5-(methylsulfonyl)pyridin-2-yl)-3-(1H-pyrrolo[2,3-b]pyridin-5-yl)pyrazolo[1,5-a]pyridine-5-carboxamide]	30
Cc1ccc(-c2cnn3ccc(C(=O)N(C)c4ccc(C#N)cn4)cc23)nc1 [Example 59, N-(5-cyanopyridin-2-yl)-N-methyl-3-(5-methylpyridin-2-yl)pyrazolo[1,5-a]pyridine-5-carboxamide]	228

Continued, values first:

EC50 [nM]	Compound
683	COc1ccc(-c2cnn3ccc(C(=O)N(C)c4ccc(C#N)cn4)cc23)nc1 [Example 60, N-(5-cyanopyridin-2-yl)-3-(5-methoxypyridin-2-yl)-N-methylpyrazolo[1,5-a]pyridine-5-carboxamide]
20	CN(C(=O)c1ccn2ncc(-c3ccc(C(N)=O)cn3)c2c1)c1ccc(C#N)cn1 [Example 61, 3-(5-carbamoylpyridin-2-yl)-N-(5-cyanopyridin-2-yl)-N-methylpyrazolo[1,5-a]pyridine-5-carboxamide]
6	Cc1ccc(N(C)C(=O)c2ccn3ncc(-c4ccc(C(N)=O)cc4)c3c2)nc1 [Example 63, 3-(4-carbamoylphenyl)-N-methyl-N-(5-methylpyridin-2-yl)pyrazolo[1,5-a]pyridine-5-carboxamide]
20	CNC(=O)c1ccc(-c2cnn3ccc(C(=O)N(C)c4ccc(F)cc4)cc23)cc1 [Example 64, N-(4-fluorophenyl)-N-methyl-3-(4-(methylcarbamoyl)phenyl)pyrazolo[1,5-a]pyridine-5-carboxamide]
504	Cc1ccc(N(C)C(C)c2ccn3ncc(-c4ccc(C(N)=O)cc4)c3c2)nc1 (centres unmarked) [Example 65, 4-(5-(1-(methyl(5-methylpyridin-2-yl)amino)ethyl)pyrazolo[1,5-a]pyridin-3-yl)benzamide]
49	CC(c1ccn2ncc(-c3ccc(C(N)=O)cc3)c2c1)N1C(=O)COc2cc(F)ccc21 (centres unmarked) [Example 66, 4-(5-(1-(7-fluoro-3-oxo-2H-benzo[b][1,4]oxazin-4(3H)-yl)ethyl)pyrazolo[1,5-a]pyridin-3-yl)benzamide]
6750	CC(=O)Nc1ccc(-c2cnn3ccc(C(C)N(C)c4ccc(C)cn4)cc23)cc1 (centres unmarked) [Example 68, N-(4-(5-(1-(methyl(5-methylpyridin-2-yl)amino)ethyl)pyrazolo[1,5-a]pyridin-3-yl)phenyl)acetamide]
13	CC(=O)Nc1ccc(-c2cnn3ccc(C(=O)N(C)c4ccc(C#N)cn4)cc23)cc1 [Example 69, 3-(4-acetamidophenyl)-N-(5-cyanopyridin-2-yl)-N-methylpyrazolo[1,5-a]pyridine-5-carboxamide]
3	NC(=O)c1ccc(-c2cnn3ccc(C(=O)N4CCOc5cc(F)ccc54)cc23)cc1 [Example 71, 4-(5-(7-fluoro-3,4-dihydro-2H-benzo[b][1,4]oxazine-4-carbonyl)pyrazolo[1,5-a]pyridin-3-yl)benzamide]
5	CC1COc2cc(F)ccc2N1C(=O)c1ccn2ncc(-c3ccc(C(N)=O)cc3)c2c1 (centres unmarked) [Example 72, 4-(5-(7-fluoro-3-methyl-3,4-dihydro-2H-benzo[b][1,4]oxazine-4-carbonyl)pyrazolo[1,5-a]pyridin-3-yl)benzamide]
> 10000	CNC(=O)c1ccc(-c2cnn3ccc(C(=O)N4CCOc5cc(F)ccc54)cc23)cc1 [Example 73, 4-(5-(7-fluoro-3,4-dihydro-2H-benzo[b][1,4]oxazine-4-carbonyl)pyrazolo[1,5-a]pyridin-3-yl)-N-methylbenzamide]
52	CNC(=O)c1ccc(-c2cnn3ccc(C(=O)N4c5ccc(F)cc5OCC4C)cc23)cc1 (centres unmarked) [Example 74, 4-(5-(7-fluoro-3-methyl-3,4-dihydro-2H-benzo[b][1,4]oxazine-4-carbonyl)pyrazolo[1,5-a]pyridin-3-yl)-N-methylbenzamide]
82	CNC(=O)c1ccc(-c2cnn3ccc(C(=O)N(c4ccc(C#N)cn4)C4COC4)cc23)cc1 [Example 76, N-(5-cyanopyridin-2-yl)-3-(4-(methylcarbamoyl)phenyl)-N-(oxetan-3-yl)pyrazolo[1,5-a]pyridine-5-carboxamide]
146	CC(Cn1cccn1)N(C(=O)c1ccn2ncc(-c3ccc(C(N)=O)cc3)c2c1)c1ccc(C#N)cn1 (centres unmarked) [Example 77, N-(1-(1H-pyrazol-1-yl)propan-2-yl)-3-(4-carbamoylphenyl)-N-(5-cyanopyridin-2-yl)pyrazolo[1,5-a]pyridine-5-carboxamide]
7	CN(C(=O)c1ccn2ncc(-c3cnc(N)c(F)c3)c2c1)c1ccc(C#N)cc1 [Example 79, 3-(6-amino-5-fluoropyridin-3-yl)-N-(4-cyanophenyl)-N-methylpyrazolo[1,5-a]pyridine-5-carboxamide]
824	Cc1cc(-c2cnn3ccc(C(=O)N(C)c4ccc(C#N)cc4)cc23)cc(C)c1N [Example 80, 3-(4-amino-3,5-dimethylphenyl)-N-(4-cyanophenyl)-N-methylpyrazolo[1,5-a]pyridine-5-carboxamide]
36	Cc1cc(-c2cnn3ccc(C(=O)N(C)c4ccc(C#N)cc4)cc23)cnc1N [Example 81, 3-(6-amino-5-methylpyridin-3-yl)-N-(4-cyanophenyl)-N-methylpyrazolo[1,5-a]pyridine-5-carboxamide]
